Assays:
Botrytis cinerea = test: Test B: gray mold, preventive spray on tomato seedlings; settings: 100 = 100% disease control; for Test B rating (% disease control): 10 ppm, gray mold on tomato, 0 = no control; for Test B disease control rating: 10 ppm test solution, 0 = no control relative to controls
[1] = test system: Puccinia recondita f sp. tritici; test: Test F: wheat leaf rust, preventive spray on wheat seedlings; settings: 100 = 100% disease control; for Test F rating (% disease control): 10 ppm, wheat leaf rust, 0 = no control; for Test F disease control rating: 10 ppm test solution, 0 = no control relative to controls
Text: (§1) General protocol for preparing test solutions for Tests A-G: the test compounds were first dissolved in acetone in an amount equal to 3% of the final volume and then suspended at the desired concentration (in ppm) in acetone and purified water (50/50 mix by volume) containing 250 ppm of the surfactant PEG400 (polyhydric alcohol esters). The resulting test suspensions were then used in Tests A-G. Compounds were sprayed at a concentration of 50 ppm (*) or 10 ppm to the point of run-off on the test plants, the equivalent of a rate of 200 g/ha or 40 g/ha, respectively.
The test solution was sprayed to the point of run-off on wheat seedlings. The following day the seedlings were inoculated with a spore suspension of Puccinia recondita f sp. tritici; (the causal agent of wheat leaf rust) and incubated in a saturated atmosphere at 20° C. for 24 h, and then moved to a growth chamber at 20° C. for 6 days, after which time visual disease ratings were made.
A dash (-) indicates no test results. Compounds with an asterisks (*) were applied at a concentration of 50 ppm, otherwise test solutions were applied at 10 ppm.

Zymoseptoria tritici = test: Test E: wheat leaf blotch, preventive spray on wheat seedlings; settings: 100 = 100% disease control; for Test E rating (% disease control): 10 ppm, wheat leaf blotch, 0 = no control; for Test E disease control rating: 10 ppm test solution, 0 = no control relative to controls
Stagonospora nodorum = test: Test D: wheat glume blotch, preventive spray on wheat seedlings; settings: 100 = 100% disease control; for Test D rating (% disease control): 10 ppm, wheat glume blotch, 0 = no control; for Test D disease control rating: 10 ppm test solution, 0 = no control relative to controls
[2] = test system: Erysiphe graminis f sp. tritici; test: Test G: wheat powdery mildew, preventive spray on wheat seedlings; settings: 100 = 100% disease control; for Test G rating (% disease control): 10 ppm, wheat powdery mildew, 0 = no control; for Test G disease control rating: 10 ppm test solution, 0 = no control relative to controls
Text: as §1
The test solution was sprayed to the point of run-off on wheat seedlings. The following day the seedlings were inoculated with a spore dust of Erysiphe graminis f sp. tritici, (the causal agent of wheat powdery mildew) and incubated in a growth chamber at 20° C. for 8 days, after which time visual disease ratings were made.
Compounds with an asterisks (*) were applied at a concentration of 50 ppm, otherwise test solutions were applied at 10 ppm.

OC(Cn1cncn1)(C1=NOC(Cc2ccc(C(F)(F)F)cc2)C1)c1ccc(Cl)cc1 (single isomer, unassigned) [Compound 202]
Test B rating (% disease control) (Botrytis cinerea): 0%
Test F rating (% disease control) [1]: 100%
Test E rating (% disease control) (Zymoseptoria tritici): 21%
Test D rating (% disease control) (Stagonospora nodorum): 59%
Test G rating (% disease control) [2]: 99%

OC(Cn1cncn1)(C1=NOC2c3ccccc3CCC12)c1ccc(Cl)cc1 (stereo not shown) [Compound 223]
Test B disease control rating (Botrytis cinerea): 0%
Test F disease control rating [1]: 100%
Test E disease control rating (Zymoseptoria tritici): 63%
Test D disease control rating (Stagonospora nodorum): 0%
Test G disease control rating [2]: 99%

OC(Cn1cncn1)(C1=NOC(c2ccc(Br)cc2)C1)c1ccc(Cl)cc1 (single isomer, unassigned) [Compound 178]
Test B rating (% disease control) (Botrytis cinerea): 0%
Test F rating (% disease control) [1]: 100%
Test E rating (% disease control) (Zymoseptoria tritici): 91%
Test D rating (% disease control) (Stagonospora nodorum): 99%
Test G rating (% disease control) [2]: 100%

OC(Cn1cncn1)(C1=NOC(c2ccc(Cl)cc2)C1)c1ccccc1Cl (single isomer, unassigned) [Compound 150]
Test B rating (% disease control) (Botrytis cinerea): 0%
Test F rating (% disease control) [1]: 100%
Test E rating (% disease control) (Zymoseptoria tritici): 42%
Test D rating (% disease control) (Stagonospora nodorum): 100%
Test G rating (% disease control) [2]: 99%

CC(C)(C)C(O)(Cn1cncn1)C1=NOC(COc2ccc(OCc3ccccc3)cc2)C1 (single isomer, unassigned) [Compound 71]
Test B rating (% disease control) (Botrytis cinerea): 0%
Test F rating (% disease control) [1]: 26%
Test E rating (% disease control) (Zymoseptoria tritici): 1%
Test D rating (% disease control) (Stagonospora nodorum): 0%
Test G rating (% disease control) [2]: 94%

OC(Cn1cncn1)(C1=NOC(c2ccc(-n3cc(Br)cn3)cc2)C1)c1ccc(Cl)cc1 (single isomer, unassigned) [Compound 6]
Test B rating (% disease control) (Botrytis cinerea): 0%
Test F rating (% disease control) [1]: 0%
Test E rating (% disease control) (Zymoseptoria tritici): 0%
Test D rating (% disease control) (Stagonospora nodorum): 0%
Test G rating (% disease control) [2]: 91%

CC(C)(C)C(O)(Cn1cncn1)C1=NOC(CCc2ccc(C(F)(F)F)cc2)C1 (single isomer, unassigned) [Compound 13]
Test B rating (% disease control) (Botrytis cinerea): 0%
Test F rating (% disease control) [1]: 100%
Test E rating (% disease control) (Zymoseptoria tritici): 98%
Test D rating (% disease control) (Stagonospora nodorum): 100%
Test G rating (% disease control) [2]: 100%

CC(C)(C)CC(O)(Cn1cncn1)C1=NOC(COc2ccc(Br)cc2)C1 (single isomer, unassigned) [Compound 171]
Test B rating (% disease control) (Botrytis cinerea): 0%
Test F rating (% disease control) [1]: 100%
Test E rating (% disease control) (Zymoseptoria tritici): 0%
Test D rating (% disease control) (Stagonospora nodorum): 63%
Test G rating (% disease control) [2]: 94%

OC(Cn1cncn1)(C1=NOC(COc2ccc(Cl)nc2)C1)c1ccc(Cl)cc1 (single isomer, unassigned) [Compound 102]
Test B rating (% disease control) (Botrytis cinerea): 0%
Test F rating (% disease control) [1]: 18%
Test E rating (% disease control) (Zymoseptoria tritici): 0%
Test D rating (% disease control) (Stagonospora nodorum): 0%
Test G rating (% disease control) [2]: 69%

OC(Cn1cncn1)(C1=NOC(c2cccc(Oc3ccccc3)c2)C1)c1ccc(Cl)cc1 (single isomer, unassigned) [Compound 176]
Test B rating (% disease control) (Botrytis cinerea): 0%
Test F rating (% disease control) [1]: 100%
Test E rating (% disease control) (Zymoseptoria tritici): 2%
Test D rating (% disease control) (Stagonospora nodorum): 82%
Test G rating (% disease control) [2]: 100%

CC(C)(C)C(O)(Cn1cncn1)C1=NOC(COc2ccc(-n3cc(Br)cn3)cc2)C1 (stereo not shown) [Compound 30]
Test B rating (% disease control) (Botrytis cinerea): 99%
Test F rating (% disease control) [1]: 79%
Test E rating (% disease control) (Zymoseptoria tritici): 0%
Test D rating (% disease control) (Stagonospora nodorum): 0%
Test G rating (% disease control) [2]: 100%

CC(C)(C)CC1CC(C(O)(Cn2cncn2)c2ccc(Cl)cc2)=NO1 (single isomer, unassigned) [Compound 75]
Test B rating (% disease control) (Botrytis cinerea): 0%
Test F rating (% disease control) [1]: 90%
Test E rating (% disease control) (Zymoseptoria tritici): 0%
Test D rating (% disease control) (Stagonospora nodorum): 58%
Test G rating (% disease control) [2]: 97%

CC(C)(C)C(O)(Cn1cncn1)C1=NOC(COc2ccc(Br)cc2)C1 (single isomer, unassigned) [Compound 183]
Test B rating (% disease control) (Botrytis cinerea): 24%
Test F rating (% disease control) [1]: 100%
Test E rating (% disease control) (Zymoseptoria tritici): 35%
Test D rating (% disease control) (Stagonospora nodorum): 99%
Test G rating (% disease control) [2]: 100%

OC(Cn1cncn1)(C1=NOC(COc2ncc(Cl)cn2)C1)c1ccc(Cl)cc1 (single isomer, unassigned) [Compound 167]
Test B rating (% disease control) (Botrytis cinerea): 0%
Test F rating (% disease control) [1]: 98%
Test E rating (% disease control) (Zymoseptoria tritici): 0%
Test D rating (% disease control) (Stagonospora nodorum): 0%

CC1(COc2ccc(Cl)cc2)CC(C(O)(Cn2cncn2)C(C)(C)C)=NO1 (single isomer, unassigned) [Compound 216]
Test B disease control rating (Botrytis cinerea): 0%
Test F disease control rating [1]: 100%
Test E disease control rating (Zymoseptoria tritici): 0%
Test D disease control rating (Stagonospora nodorum): 86%

CC1(COc2ccc(Cl)cc2)CC(C(O)(Cn2cncn2)C(C)(C)C)=NO1 (single isomer, unassigned) [Compound 217]
Test B disease control rating (Botrytis cinerea): 0%
Test F disease control rating [1]: 100%
Test E disease control rating (Zymoseptoria tritici): 0%
Test D disease control rating (Stagonospora nodorum): 92%

OC(Cn1cncn1)(C1=NOC(COc2ccccc2)C1)c1ccc(Cl)cc1 (single isomer, unassigned) [Compound 145]
Test B rating (% disease control) (Botrytis cinerea): 0%
Test E rating (% disease control) (Zymoseptoria tritici): 28%
Test G rating (% disease control) [2]: 88%

CC1(COc2ccc(Cl)cc2)CC(C(O)(Cn2cncn2)c2ccc(Cl)cc2)=NO1 (single isomer, unassigned) [Compound 219]
Test B disease control rating (Botrytis cinerea): 0%
Test F disease control rating [1]: 95%
Test E disease control rating (Zymoseptoria tritici): 0%
Test D disease control rating (Stagonospora nodorum): 0%

CC1(COc2ccc(Cl)cc2)CC(C(O)(Cn2cncn2)c2ccc(Cl)cc2)=NO1 (single isomer, unassigned) [Compound 218]
Test B disease control rating (Botrytis cinerea): 0%
Test F disease control rating [1]: 100%
Test E disease control rating (Zymoseptoria tritici): 0%
Test D disease control rating (Stagonospora nodorum): 21%

CC#CC(O)(Cn1cncn1)C1=NOC(c2ccc(Cl)cc2)C1 (stereo not drawn) [Compound 103, α-[5-(4-chlorophenyl)-4,5-dihydro-3-isoxazolyl]-α-1-propyn-1-yl-1H-1,2,4-triazole-1-ethanol]
Test B rating (% disease control) (Botrytis cinerea): 0%
Test F rating (% disease control) [1]: 94%
Test E rating (% disease control) (Zymoseptoria tritici): 0%
Test G rating (% disease control) [2]: 92%

OC(COc1ccc(Cl)cc1)(Cn1cncn1)C1=NOC(c2ccc(Cl)cc2)C1 (stereo not shown) [Compound 272]
Test F disease control rating [1]: 100%
Test E disease control rating (Zymoseptoria tritici): 0%
Test D disease control rating (Stagonospora nodorum): 69%
Test G disease control rating [2]: 99%

OC(Cn1cncn1)(Cn1cncn1)C1=NOC(COc2ccc(Cl)cc2)C1 (stereo not shown) [Compound 248]
Test F disease control rating [1]: 100%
Test E disease control rating (Zymoseptoria tritici): 0%
Test D disease control rating (Stagonospora nodorum): 0%
Test G disease control rating [2]: 98%

CC(C)(C)C(O)(Cn1cncn1)C1=NOC(COc2ccc(-c3ccccc3)cc2)C1 (single isomer, unassigned) [Compound 229]
Test F disease control rating [1]: 0%
Test E disease control rating (Zymoseptoria tritici): 6%
Test D disease control rating (Stagonospora nodorum): 0%
Test G disease control rating [2]: 98%

OC(Cn1cncn1)(C1=NOC(COc2ncc(Cl)cn2)C1)c1ccc(Cl)cc1 (single isomer, unassigned) [Compound 166]
Test B rating (% disease control) (Botrytis cinerea): 0%
Test F rating (% disease control) [1]: 41%
Test E rating (% disease control) (Zymoseptoria tritici): 0%
Test D rating (% disease control) (Stagonospora nodorum): 0%

CC(C)(C)C(O)(Cn1cncn1)C1=NOC(COc2ccc(Cl)cc2Cl)C1 (single isomer, unassigned) [Compound 256]
Test F disease control rating [1]: 100%
Test E disease control rating (Zymoseptoria tritici): 0%
Test D disease control rating (Stagonospora nodorum): 97%
Test G disease control rating [2]: 99%

— US20160242416A1, “FUNGICIDAL ISOXAZOLINE CARBINOLS” (E I DU PONT DE NEMOURS AND COMPANY, priority 2015, published 2016)
